The record followed here is patent publication US20240238268A1, “TREATMENTS AND METHODS FOR TREATING ALZHEIMER'S DISEASE” (Board of Supervisors of Louisiana State University and …, priority 2021, published 2024).

Holding throughout (format): in vivo, mouse
The subject of one data set is E-Cadherin. As to the kind of experiment: E-Cadherin level, protein chip assay. The note with it: aged 3xTg-AD female mice; cortex and hippocampus; 30 mg/kg, 7 days, IP. The protocol:
FIGS. 19A-19F are six graphs showing PRMT4 inhibitor (TP-064) reduced ICAM-1, VCAM-1 and enhanced E-Cadherin protein levels in aged female 3xTg-AD mice. In FIGS. 19A-19D, aged 3xTg-AD female mice v. […] Adhesion molecules were assessed via protein chip assay in the cortex and hippocampus. * p<0.05 evaluated by one-way ANOVA with Tukey's post-hoc analyses.

The test system of data set [1] is amyloid precursor protein (APP). As to the kind of experiment: Amyloid precursor protein level in brain, capillary-phoresis. The note with it: treated 3xTg-AD mice; controls = 100%; not significantly changed vs untreated 3xTg. An excerpt: Capillary-phoresis immunoassay via ProteinSimple®: Quantification of all protein targets was achieved using Simple Western analysis in a Jess™ apparatus per the manufacturer's protocol (ProteinSimple, Bio-techne, Minneapolis, MN). Protein was extracted from dissected tissue in an extraction buffer consisting of T-PER® Tissue Protein Extraction Reagent (Cat. No. 78510, Thermo Fischer Scientific, Waltham, MA) and Halt™ Protease Inhibitor Cocktail (Cat. No. 87785, Thermo Fischer Scientific, Waltham, MA). Following homogenization and centrifugation (10,000×g, 5 min, 4° C.), protein concentration was determined in tissue protein supernatant samples using DC Protein Assay (Cat. No. 5000112, Bio-Rad Laboratories, Hercules, California) according to manufacturer instructions. […] Antibody diluent (ProteinSimple, Bio-techne, Minneapolis, MN) was used for all antibody dilutions as follows: PRMT4 (1:50, RRID: AB_2068436), PRMT6 (1:100, Cell Signaling Technology cat. 14641), eNOS (1:200, RRID: AB_10850618), nNOS (1:100, RRID: AB_2152488), iNOS (1:100, RRID: AB_10000625), DDAH2 (1:50, RRID: AB_2640442) Antibodies were detected using HRP-conjugated secondary anti-rabbit, and -mouse. Relative protein levels were calculated by measuring the area under the peak of a chemiluminescent chromatogram and normalized to total capillary chemiluminescence for a given sample. […]

The test system of another data set is 3-nitrotyrosine. As to the kind of experiment: 3-Nitrotyrosine ELISA of brain lysate. Conditions: combined cortex and hippocampus lysate. The protocol: OxiSelect™ 3-Nitrotyrosine ELISA: Protein was extracted from dissected tissue in an extraction buffer consisting of T-PER® Tissue Protein Extraction Reagent (Cat. No. 78510, Thermo Fischer Scientific, Waltham, MA) and Halt™ Protease Inhibitor Cocktail (Cat. No. 87785, Thermo Fischer Scientific, Waltham, MA). Following homogenization and centrifugation (10,000×g, 5 min, 4° C.), protein concentration was determined in the supernatant using DC Protein Assay (Cat. No. 5000112, Bio-Rad Laboratories, Hercules, California) according to manufacturer instructions. Levels of 3-Nitrotyrosine were determined using OxiSelect™ 3-Nitrotyrosine ELISA (Cat. No. STA-305, Cell Biolabs Inc., San Diego, CA). Briefly, 50 μL of protein lysate was added to a pre-coated 96-well plate and incubated at room temperature (20° C.) for 10 min on an orbital shaker. 50 μL of anti-nitrotyrosine antibody (1:1000, Cell Biolabs Inc., San Diego, CA) was added to each well and plate was incubated for 1 hr at 20° C. Wells were washed 3 times using assay wash buffer, and 100 μL of secondary antibody-enzyme conjugate (1:1000, Cell Biolabs Inc., San Diego, CA) was added to each well. Plate was then incubated for 1 hr at 20° C. on an orbital shaker. […] The standard curve was provided by the manufacturer, and all sample concentrations were determined from the standard curve values. Changes in absorbance were measured at 450 nm. […]

Data set [2] can be described thus: Toxicity: blood counts, liver enzymes, kidney function. An excerpt:
The inventors have on-going studies to screen for major organ toxicity. Plasma liver enzymes (ALT/AST) and kidney function were normal in TP-064-treated mice.

As to `CNCCN1CCC(c2cc(CN(C)C(=O)c3cccc(Oc4ccccc4)c3)ccn2)CC1` [TP-064, N-Methyl-N-((2-(1-(2-(methylamino)ethyl)piperidin-4-yl)pyridin-4-yl)methyl)-3-phenoxybenzamide], the E-Cadherin level result with E-Cadherin is on record as “elevated”. For the same compound, in data set [1], the “APP level in cortex” value was 801%±36.3 and the “APP level in hippocampus” value is given as 1040%±31.1. Further, the 3-nitrotyrosine level in the data set on 3-nitrotyrosine (3xTg-AD mice) came out at 110 ± 27.2 µM. The 3-nitrotyrosine level with 3-nitrotyrosine (C57BL/6J mice) stood at 86.9 ± 7.71 µM. For the same compound, in data set [2] (mice treated 7 days), the complete blood counts result is recorded as “no abnormalities”. In addition, in data set [2] (treated mice), the “Plasma liver enzymes (ALT/AST)” value was “normal” and the kidney function entry is reported as “normal”.
